Assay results as given in ChEMBL document CHEMBL1275488, “Extended-spectrum beta-lactamase production is associated with an increase in cell invasion and expression of fimbrial adhesins in Klebsiella pneumoniae” (2008).

Test system: Klebsiella pneumoniae
Assay: Antibacterial activity against extended-spectrum beta-lactamase-producing Klebsiella pneumoniae
Format: functional

Row | MIC [µg/mL] | SMILES
1 | < 2 | CO/N=C(\C(=O)N[C@@H]1C(=O)N2C(C(=O)O)=C(COC(C)=O)CS[C@H]12)c1csc(N)n1 [CEFOTAXIME]
2 | < 2 | CO/N=C(\C(=O)N[C@@H]1C(=O)N2C(C(=O)O)=C(CSc3nc(=O)c(O)nn3C)CS[C@H]12)c1csc(N)n1 [CEFTRIAXONE]

Row | SMILES | MIC [µg/mL]
3 | CC(C)(O/N=C(\C(=O)N[C@@H]1C(=O)N2C(C(=O)[O-])=C(C[n+]3ccccc3)CS[C@H]12)c1csc(N)n1)C(=O)O [CEFTAZIDIME] | < 2
